{"source": "paper PMC3724809", "about": "“Analysis of the Interaction Interfaces of the N-Terminal Domain from Pseudomonas aeruginosa MutL” (PLoS ONE, 2013)", "key": {"[1]": {"molecular_target": "T1, PaNTD (P. aeruginosa MutL N-terminal domain) (Pseudomonas aeruginosa, UniProt Q9HUL8)", "T1 sequence (Q9HUL8 1-339)": "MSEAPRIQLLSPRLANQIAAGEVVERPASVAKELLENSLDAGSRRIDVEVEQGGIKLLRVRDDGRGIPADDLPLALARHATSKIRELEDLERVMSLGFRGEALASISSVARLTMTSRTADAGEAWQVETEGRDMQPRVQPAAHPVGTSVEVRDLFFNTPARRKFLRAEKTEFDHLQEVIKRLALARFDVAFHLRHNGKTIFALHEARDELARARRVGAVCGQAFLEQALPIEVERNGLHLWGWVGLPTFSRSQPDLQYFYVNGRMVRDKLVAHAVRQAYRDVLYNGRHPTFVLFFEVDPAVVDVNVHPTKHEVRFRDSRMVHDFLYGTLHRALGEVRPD", "test": "size-exclusion chromatography, nucleotide-induced dimerization", "format": "binding", "details": "5 mM MgCl2, 150 mM KCl, 20 mM Tris-HCl pH 7.9, room temperature"}, "[2]": {"molecular_target": "T2, EcNTD (E. coli MutL N-terminal domain, LN40) (Escherichia coli, UniProt P23367)", "T2 sequence (P23367 1-342)": "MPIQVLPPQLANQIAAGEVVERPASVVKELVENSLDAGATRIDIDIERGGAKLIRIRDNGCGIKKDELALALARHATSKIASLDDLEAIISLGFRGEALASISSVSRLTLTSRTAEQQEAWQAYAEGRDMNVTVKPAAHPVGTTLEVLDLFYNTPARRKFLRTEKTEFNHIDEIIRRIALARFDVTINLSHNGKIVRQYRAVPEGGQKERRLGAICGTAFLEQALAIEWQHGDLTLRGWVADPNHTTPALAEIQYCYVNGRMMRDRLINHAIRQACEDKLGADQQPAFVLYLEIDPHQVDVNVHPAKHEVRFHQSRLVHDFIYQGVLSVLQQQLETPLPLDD", "test": "DSS chemical cross-linking, nucleotide-induced dimerization, SDS-PAGE", "format": "binding", "details": "1 mM AMPPNP, 5 mM MgCl2, 150 mM KCl, 20 mM HEPES pH 7.4, 4 °C"}, "[3]": {"molecular_target": "the molecule itself", "test": "SEC; Superose 12 10/30, 20 mM Tris-HCl pH 7.9, 150 mM KCl, 5 mM MgCl2, 1 mM DTT, room temperature; 1 mg/ml PaNTD or 2 mg/ml EcNTD (legend: 22 µM) without nucleotide, with ADP or with ATP; calibrated with BSA 45 and 66 kDa"}}}
{"molecule": "Nc1ncnc2c1ncn2[C@@H]1O[C@H](COP(=O)(O)OP(=O)(O)OP(=O)(O)O)[C@@H](O)[C@H]1O", "note": "[ATP]", "values": [{"measurement": "size-exclusion chromatography, nucleotide-induced dimerization", "setting": "[1]", "result": "No major differences were observed among the elution pattern of ADP or ATP bound PaNTD"}]}
{"molecule": "Nc1ncnc2c1ncn2[C@@H]1O[C@H](COP(=O)(O)OP(=O)(O)O)[C@@H](O)[C@H]1O", "note": "[ADP]", "values": [{"measurement": "size-exclusion chromatography, nucleotide-induced dimerization", "setting": "[1]", "result": "PaNTD binding to ADP displaced monomer-dimer equilibrium as judged by size-exclusion chromatography"}]}
{"molecule": "Nc1ncnc2c1ncn2[C@@H]1O[C@H](COP(=O)(O)OP(=O)(O)NP(=O)(O)O)[C@@H](O)[C@H]1O", "note": "[AMPPNP]", "values": [{"measurement": "DSS chemical cross-linking, nucleotide-induced dimerization, SDS-PAGE", "setting": "[2]", "result": "EcNTD dimers were only observed in presence of AMPPNP (Figure S5)"}]}
{"molecule": "Pseudomonas aeruginosa MutL N-terminal domain (PaNTD, amino acids 1-339), His6-tagged (domain or fragment, UniProt Q9HUL8 1-339, looked up, MutL of Pseudomonas aeruginosa, N-terminal ATPase domain, residues 1-339 of PaMutL, amplified from genomic DNA; monomeric MW 37.7 kDa; The pET-15b vector should add an N-terminal His6 tag with a thrombin site (surmised, as is cloning through NdeI); no cleavage of the tag is described; also called His6-PaNTD; His-tag PaNTD) MSEAPRIQLLSPRLANQIAAGEVVERPASVAKELLENSLDAGSRRIDVEVEQGGIKLLRVRDDGRGIPADDLPLALARHATSKIRELEDLERVMSLGFRGEALASISSVARLTMTSRTADAGEAWQVETEGRDMQPRVQPAAHPVGTSVEVRDLFFNTPARRKFLRAEKTEFDHLQEVIKRLALARFDVAFHLRHNGKTIFALHEARDELARARRVGAVCGQAFLEQALPIEVERNGLHLWGWVGLPTFSRSQPDLQYFYVNGRMVRDKLVAHAVRQAYRDVLYNGRHPTFVLFFEVDPAVVDVNVHPTKHEVRFRDSRMVHDFLYGTLHRALGEVRPD", "values": [{"measurement": "dimer share of peak area", "setting": "[3]", "result": "~0.2 share of the dimer peak (monomer 0.8)"}, {"measurement": "stoichiometry N", "setting": "[3]", "result": 2}]}
